Consider one molecule from patent US20100292345A1, “THERAPEUTIC USES OF CANNABIGEROL” (GW PHARMA LIMITED, priority 2007, published 2010).

For assay [1], the system named is CB1 receptors in mouse brain tissue. Put plainly: [35S]GTPγS binding assay, mouse brain membranes. Type of assay: biochemical. Particulars: conclusion from the example data. On the procedure: (§1) Whole mouse brain membranes were prepared as described by Thomas et al., 2004. CHO cells were stably transfected with cDNA encoding human cannabinoid CB2 receptors and were maintained at 37° C. and 5% CO2 in Dulbecco's Modified Eagle's Medium nutrient mixture.
The assays were carried out with GTPγS binding buffer (50 mM Tris-HCl; 50 mM Tris-Base; 5 mM MgCl2; 1 mM EDTA; 100 mM NaCl; 1 mM DTT; 0.1% BSA) in the presence of [^35S]GTPγS and GDP, in a final volume of 500 μl. Binding was initiated by the addition of [^35S]GTPγS to the tubes. The drugs were incubated in the assay for 60 min at 30° C. The reaction was terminated by a rapid vacuum filtration method using Tris buffer (50 mM Tris-HCl; 50 mM Tris-Base; 0.1% BSA), as described previously, and the radioactivity was quantified by liquid scintillation spectrometry.
The agonism of the CB1 or CB2 receptors by CP55940 results in a response in the cell. This response is the binding of [^35S]GTPγS to the cell membrane.
Changes in the response in the presence of the test compound can be measured in order to determine whether the compound is acting as an agonist, a neutral antagonist or an inverse agonist. An agonist will increase the response, a neutral antagonist will have no effect on the response and an inverse agonist will stop or reverse the response. […]

For assay [2], the target named is T1, human cannabinoid CB2 receptors (Homo sapiens, UniProt P34972).
T1 construct: expressed in transfected cells; host or cells: CHO cells, stably transfected
T1 sequence (P34972 whole entry): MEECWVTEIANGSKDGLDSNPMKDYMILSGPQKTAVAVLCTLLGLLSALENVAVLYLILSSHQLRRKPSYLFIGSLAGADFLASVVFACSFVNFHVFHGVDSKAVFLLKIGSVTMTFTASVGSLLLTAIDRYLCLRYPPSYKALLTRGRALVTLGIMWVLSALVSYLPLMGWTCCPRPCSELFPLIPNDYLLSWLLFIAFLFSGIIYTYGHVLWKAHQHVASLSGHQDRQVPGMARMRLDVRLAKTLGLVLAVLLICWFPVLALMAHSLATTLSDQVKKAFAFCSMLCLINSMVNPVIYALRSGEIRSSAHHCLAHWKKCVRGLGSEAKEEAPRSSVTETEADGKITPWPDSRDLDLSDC
As to the kind of experiment: Inhibition of forskolin-stimulated cyclic AMP production in hCB2-CHO cells. Type of assay: cell-based. Set-up: Emax, inhibition of forskolin-stimulated cyclic AMP production: unit not given here.

For assay [3], the target named is T2, CB1 receptors in mouse brain tissue (Mus musculus, UniProt P47746).
T2 construct: Whole mouse brain membranes were prepared as described by Thomas et al., 2004; from tissue; host or cells: whole mouse brain membranes
T2 sequence (P47746 whole entry): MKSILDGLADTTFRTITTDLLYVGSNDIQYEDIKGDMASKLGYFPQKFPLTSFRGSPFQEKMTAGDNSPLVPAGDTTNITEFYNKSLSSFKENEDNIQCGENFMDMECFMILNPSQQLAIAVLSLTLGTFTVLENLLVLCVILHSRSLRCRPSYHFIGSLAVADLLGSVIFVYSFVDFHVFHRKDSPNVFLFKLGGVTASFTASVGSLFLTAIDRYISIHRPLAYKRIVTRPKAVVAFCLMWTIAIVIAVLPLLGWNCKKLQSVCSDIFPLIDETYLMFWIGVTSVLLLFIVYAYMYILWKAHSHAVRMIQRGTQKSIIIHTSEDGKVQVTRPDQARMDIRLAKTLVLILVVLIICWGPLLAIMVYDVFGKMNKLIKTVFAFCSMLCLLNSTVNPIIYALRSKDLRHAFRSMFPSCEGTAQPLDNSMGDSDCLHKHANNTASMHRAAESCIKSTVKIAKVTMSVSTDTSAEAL
Put plainly: [3H]CP55940 radioligand displacement assay, mouse whole brain membranes. The format is binding. On the procedure: as §1
(§2) The assays were carried out with the established CB1 and CB2 cannabinoid receptor agonist CP55940. This was radiolabelled to form [^3H]CP55940.
(§3) Binding of the radiolabelled compound was initiated by the addition of either the brain membranes (33 μg protein per tube) or the transfected hCB2 cells (25 μg protein per tube).
(§4) All assays were performed at 37° C. for 60 min before termination by addition of ice-cold wash buffer (50 mM Tris buffer, 1 mg ml^−1 bovine serum albumin, pH 7.4) and vacuum filtration using a 24-well sampling manifold and GF/B filters that had been soaked in wash buffer at 4° C. for at least 24 h.
(§5) The test compounds were also tested to determine whether they were able to displace the agonist CP55940 from the binding site of the CB1 or CB2 receptor. The Ki-value that resulted from this investigation gives an insight into how strongly the test compound competes with the agonist for the binding site.
For orientation: In a radioligand displacement assay an active substance lowers the binding of a labelled ligand.

In assay [4] the target is T1, human cannabinoid CB2 receptors. As to the kind of experiment: [3H]CP55940 radioligand displacement assay, hCB2-CHO cell membranes. As to conditions: membranes prepared from hCB2-CHO cells; 37° C., 60 min; read-out: Ki, displacement of [3H]CP55940 from specific binding sites. The method, then: as §1, §2, §3, §4, §5

Consider `CCCCCc1cc(O)c(C/C=C(\C)CCC=C(C)C)c(O)c1` [CBG, cannabigerol], for which the “functional character at CB1 receptor” value in assay [1] is reported as “partial agonist”. Further, the “functional character at CB2 receptor” value in assay [2] (conclusion from the example data) was “partial agonist”. Further, in assay [2] (hCB2-CHO cells, 5 μM forskolin), the EC50 was 388 nM and the “Emax, inhibition of forskolin-stimulated cyclic AMP production” value is 28.3. The “efficacy relative to CP55940 in inhibiting forskolin-stimulated cyclic AMP production” value in assay [2] (hCB2-CHO cells, 5 μM forskolin, submicromolar concentrations) is “efficacy less than that of CP55940”. The molecule also showed a Ki in assay [3] of 439 nM. Further, the Ki in assay [4] is 337 nM.

What is called EC50 is the midpoint of the concentration-response curve. The term Ki denotes a dissociation constant, usually derived from enzyme kinetics or from competition with a known ligand.
